{
  "source": "patent US7205281B2",
  "about": "“Process for the synchronization of ovulation for timed breeding without heat detection” (priority 2003, dated 2007)",
  "format_in_all_cases": "in vivo, swine",
  "key": {"mature postpartum sows": {"system": "mature postpartum sows", "test": "Deslorelin injected intravulvar at estrus detection with AI breeding in mature postpartum sows (Example 2)", "method": "Sows were assigned randomly in blocks of two to either control or to be injected intravulvar with 50 mcg of deslorelin in SAIB at the time of estrus detection for sows first detected in estrus in the a.m. and 12 hours later for those first detected in estrus in the p.m. Treated animals were bred AI upon detected estrus and again 24 hours later if still in estrus. Controls received a saline injection on first detected estrus behavior estrus detection and were bred according to the farm's normal procedures."}, "postpartum sows [1]": {"system": "postpartum sows", "test": "Litter size after deslorelin treatment in postpartum sows at three farm sites (Example 4)", "conditions": "Tables 3 to 5, regardless of estrus detection", "text": "(§1) Postpartum sows were randomly distributed into three different groups comprised of Controls, Treatment 1, and Treatment 2, with the exception of Site 3, which was divided into two groups, Control and Treatment 2. Control sows were detected for estrus following weaning, and bred following the normal standard operating procedures for the farms on which they resided. Treatment 1 sows were detected for estrus following weaning, and received a 50 mcg dose of deslorelin in the morning when standing and were bred by AI 4 hours later and again at 24+/−2 hours later. Treatment 2 sows received a 50 mcg dose of deslorelin in SAIB at 96 or 120 hours post-weaning and were bred with a single insemination 28+/−2 hours later with no regard to estrus detection."}, "postpartum sows [2]": {"system": "postpartum sows", "test": "Pregnancy rate after deslorelin treatment in sows, summary of Tables 2 to 5", "conditions": "Table 6", "method": "as §1, with “Approximately 170 postpartum sows were randomly divided into two equal groups comprised of controls and treated. Following weaning, the controls were detected for estrus and bred following the normal standard operating procedures for the farms on which they resided. The treated sows received a 50 mcg dose of deslorelin in SAIB at 96 hours post-weaning and were bred with a single insemination 28+/−2 hours later with no regard to estrus detection. The sows were examined for pregnancy by ultrasound at 21 days and slaughtered around 28 days post breeding. The entire reproductive tract was removed and corpora lutea and embryos were counted. Postpartum” for “Postpartum”, “detection. […]” for “detection.”"}, "[3]": {"system": "ovariectomized estrogen primed gilt", "test": "Dose response study of LH release in ovariectomized estrogen primed gilt model (RIA)", "conditions": "single injection of 50 mcg in SAIB", "method": "A dose response study was performed using deslorelin in SAIB in an ovariectomized estrogen primed gilt model (Barb, et al. (1999) Proceed. Int'l. Symp. Control. Rel. Bioact. Mater., 26)."}, "postpartum sows [4]": {"system": "postpartum sows", "test": "Timed deslorelin injection 96 hours post-weaning and single timed insemination without estrus detection (Example 3)", "method": "Approximately 170 postpartum sows were randomly divided into two equal groups comprised of controls and treated. Following weaning, the controls were detected for estrus and bred following the normal standard operating procedures for the farms on which they resided. The treated sows received a 50 mcg dose of deslorelin in SAIB at 96 hours post-weaning and were bred with a single insemination 28+/−2 hours later with no regard to estrus detection. The sows were examined for pregnancy by ultrasound at 21 days and slaughtered around 28 days post breeding. The entire reproductive tract was removed and corpora lutea and embryos were counted."}, "[5]": {"conditions": "50 μg deslorelin acetate intravulvar at first estrus detection, AI, AI again if in estrus next day"}},
  "data": [
    {"smiles": "CCNC(=O)[C@@H]1CCCN1C(=O)[C@H](CCCN=C(N)N)NC(=O)[C@H](CC(C)C)NC(=O)[C@@H](Cc1c[nH]c2ccccc12)NC(=O)[C@H](Cc1ccc(O)cc1)NC(=O)[C@H](CO)NC(=O)[C@H](Cc1c[nH]c2ccccc12)NC(=O)[C@H](Cc1cnc[nH]1)NC(=O)[C@@H]1CCC(=O)N1", "note": "[Deslorelin, deslorelin]", "values": [
      {"measurement": "Length of Estrus", "setting": "mature postpartum sows; [5]", "result": 40.81, "unit": "h"},
      {"measurement": "Pregnancy Rate", "setting": "mature postpartum sows; [5]", "result": 91, "unit": "%"},
      {"measurement": "Pregnancy rates, Control versus Treated", "setting": "mature postpartum sows; 50 μg intravulvar at first estrus detection", "result": "no significant difference"},
      {"measurement": "Litter sizes", "setting": "postpartum sows [1]", "result": "normal litter sizes"},
      {"measurement": "Pregnancy rates", "setting": "postpartum sows [2]", "result": "normal pregnancy rates were obtained"},
      {"measurement": "Time of LH return to base level", "setting": "[3]", "result": "≤ 18", "unit": "h"},
      {"measurement": "LH peak relative to normal value", "setting": "[3]; normal value from Hansel et al. 1973", "result": "about twice normal value"},
      {"measurement": "Pregnancy Rate", "setting": "postpartum sows [4]; 50 mcg in SAIB 96 hours post-weaning, single insemination 28+/-2 hours later, no estrus detection", "result": 71, "unit": "%"},
      {"measurement": "Sows Pregnant", "setting": "postpartum sows [4]; 50 mcg in SAIB 96 hours post-weaning, single insemination 28+/-2 hours later, 84 sows in group, ultrasound at 21 days", "result": 60},
      {"measurement": "Embryo Survival", "setting": "postpartum sows [4]; 50 mcg in SAIB 96 hours post-weaning, slaughter around 28 days post breeding", "result": 64, "unit": "%"},
      {"measurement": "Pregnancy rates", "setting": "postpartum sows [4]; single timed injection post-weaning, single timed insemination, no estrus detection", "result": "normal pregnancy rates were attained"}
    ]}
  ]
}
